Tested on: Renilla luciferase (R/L) expression
Test: Evaluation of delivery efficiency by detection of protein expression level (R/L mRNA-LNP injected intradermally into mouse ear, luminescence of ear lysate)
Assay type: in vivo, ICR mice
Conditions: ionizable lipid:trehalose-based lipid:DOPE:cholesterol (or substitute):DMG-PEG 25:25:10:38.5:1.5
Description: An RNA platform in which a nucleic acid sequence encoding Renilla luciferase (R/L), which has an IRES element derived from encephalomyocarditis virus (EMCV) and is a known reporter gene, was inserted as a target sequence was constructed. The template DNA was designed and the nucleic acid molecule of the single-stranded RNA platform was constructed using an IVT procedure.
Lipid nanoparticles were prepared from 0.625 mg/mL of an RNA solution (50 mM sodium citrate buffer, 110 mM NaCl, pH=4.0) and a lipid-mixture solution (ethanol) using a laboratory mixer and emulsifier (NanoAssembir Spark, Precision NanoSystems) and subjected to solvent conversion with physiological saline using a filter tube for centrifugation (UFC5010, Amicon). […]
The experiment was performed according to the following procedure. […] R/L, which was actually tested, expression, and maintenance were detected at two points of time: after 6 hours and 24 hours.
Each mouse was anesthetized using a respiratory anesthetic, and a drug that satisfied the experimental conditions was injected into the mouse through an insulin syringe. […] Then, 20 μl of the mixture was transferred to a white 96-well plate, 100 μl of Renilla luciferase assay substrate from Promega Corporation was added thereto, and luminescence was measured to compare expression.

Row | Structure (SMILES) | usability as cholesterol substitute in lipid nanoparticles
1 | CCCCOC(=O)CC[C@H](C)[C@H]1CC[C@H]2[C@@H]3CC[C@@H]4C[C@H](O)CC[C@]4(C)[C@H]3CC[C@]12C [Formula 4] | appropriate cholesterol substitutes
2 | CCC(C)CCOC(=O)CC[C@H](C)[C@H]1CC[C@H]2[C@@H]3CC[C@@H]4C[C@H](O)CC[C@]4(C)[C@H]3CC[C@]12C (some centres unmarked) [Formula 5] | appropriate cholesterol substitutes
